Assay results from patent US9289505B2, “Compositions and methods for delivering nucleic acid molecules and treating cancer” (Rutgers, The State University of New Jersey, priority 2010, dated 2016).
d = 2'-deoxy (DNA); r = 2'-OH (RNA)

Columns and labels:
BCL2 mRNA = assay: BCL2 gene silencing by siRNA-dendrimer complexes, RT-PCR; format: cell-based, human; conditions: A549 cells, 24 hours incubation
Experimental: Quantitative reverse transcription-polymerase chain reaction (RT-PCR) was used for the analysis of expression of genes encoding BCL2 protein and β2-microglobulin (internal standard) as previously described (Pakunlu et al. (2003) Pharm. Res., 20:351-359). RNA was isolated after 24 hours incubation of cancer cells with siRNA-dendrimer complexes, using an RNeasy kit (Qiagen, Valencia, Calif.). First strand complementary DNA (cDNA) was synthesized by Ready-To-Go You-Prime First-Strand Beads (Amersham Biosciences, Piscataway, N.J.) with […] of total cellular RNA and 100 ng of random hexadeoxynucleotide primer (Amersham Bioscience, Piscataway, N.J.). After synthesis, the reaction mixture was immediately subjected to PCR, which was carried out using GenAmp® PCR System 2400 (Perkin-Elmer, Shelton, Conn.). The following pairs of primers were used: BCL2-GGATTGTGGCCTTCTTTGAG (sense; SEQ ID NO: 6), CCAAACTGAGCAGAGTCTTC (antisense; SEQ ID NO: 7); β2-microglobulin (β2-m)-ACCCCCACTGAAAAAGATGA (sense; SEQ ID NO: 8), ATCTTCAAACCTCCATGATG (antisense; SEQ ID NO: 9). […] Gene expression was calculated as the ratio of mean band intensity of analyzed RT-PCR product (BCL2) to that of the internal standard (β2-m). […]

[1] = system: subcutaneous tumor xenografts of human A549 cancer cells; assay: Antitumor activity in subcutaneous A549 xenografts; conditions: intratumoral 3 times within 10 days
Experimental: NCR nude mice (female, 6 weeks, 20 g) were purchased from Taconic Farms, Inc. (Germantown, N.Y.). […] Briefly, A549 human cancer cells transfected with luciferase (5×10^6) were subcutaneously transplanted into the flanks of female athymic nu/nu mice. According to the approved institutional animal use protocol, the tumors were measured by a caliper every other day and their volumes were calculated as d^2×D/2 where d and D are the shortest and longest diameter of the tumor in mm, respectively. When the tumor reached a mean size of 50 mm^3, mice were divided into seven groups and injected intratumorally 3 times within 10 days with 150 μL of the following formulations: (1) saline (control); (2) free non-bound LHRH; (3) free non-bound siRNA; (4) free non-bound CIS; (5) Mixture of CIS and SPIO-PPI G5; (6) Mixture of CIS and SPIO-PPI G5-siRNA; and (7) Mixture of CIS and SPIO-PPI G5-siRNA-PEG-LHRH complexes. The concentrations of CIS and siRNA in the formulations were 2.5 mg/kg and 30 μM, respectively. Changes in tumor size were monitored by real-time bioluminescence in anesthetized animals by IVIS imaging system (Xenogen Bioscience, Cranbury, N.J.).

[2] = system: A2780 human ovarian cancer cells; assay: Cellular uptake of fluorophore labeled siRNA, confocal microscopy; format: cell-based; conditions: living cells
Experimental: Cellular uptake and intracellular localization of siRNA was investigated using a confocal microscopy. In this experiment, living cancer cells were incubated with fluorophore labeled naked siRNA (siGLO® Red, red fluorescence) and siRNA complexed with cationic nanocarrier PAMAM-PEG-PLL (N/P=3). Cellular uptake studied substances was monitored in living cells placed in a chamber at 37° C. within 1 hour. Cellular localization of siRNA was examined on fixed and washed cells after the incubation for 24 hours with the substances. Fluorescence and its distribution within the cell were examined using a confocal microscope.

[3] = system: A549 human lung cancer cells; assay: Cellular internalization of FAM-labelled siRNA; format: cell-based; conditions: 24 hours, siRNA 0.25 μM, fluorescence microscopy
Experimental: Prior to the visualization, A549 cells were plated (20,000 cells per well) in a 6-well tissue culture plate. The cells were treated within 24 hours with the siRNA complex prepared with different generations of PPI dendrimer. The treatment of the A549 cells was performed in such a manner that the final concentration of siRNA was 0.25 μM and the concentrations of PPI G2, G3, G4, and G5 dendrimers were 3.15 μM, 1.58 μM, 0.79 μM, and 0.39 μM, respectively. After 24 hours of treatment, the cells were washed three times with Phosphate Buffered Saline (PBS) and 1 mL of media was added to each well. Cellular internalization of siRNA-dendrimer complexes were analyzed by fluorescent (Olympus America Inc., Melville, N.Y.) and confocal (Leica Microsystems Inc., Bannockburn, Ill.) microscopes. To obtain intracellular distribution of siRNA, ten optical sections, known as a z-series, were photographed sequentially, by confocal microscope, along the vertical (z) axis from the top to the bottom of the cell. The obtained fluorescent images were digitally scanned and fluorescence inside cells (reflecting intracellular accumulation of labelled siRNA) was expressed in arbitrary units.

BCL2 gene = BCL2 gene expression, RT-PCR; format: cell-based, human; conditions: A2780 cells, BCL2 siRNA 1 μM delivered by the named carrier, 24 hours
Experimental: Reverse transcription-polymerase chain reaction (RT-PCR) was used for the analysis of gene expression (Pakunlu et al. (2004) Cancer Res., 64:6214-6224). […] After 24 hours, total cellular RNA was isolated using an RNeasy kit (Qiagen, Valencia, Calif.). […] After synthesis, the reaction mixture was immediately subjected to polymerase chain reaction (PCR), which was carried out using […] System 2400 (Perkin-Elmer, Shelton, Conn.). β2-microglobulin (β2-m) was used as an internal standard. The following pairs of primers were used: BCL2: [NT] (sense; SEQ ID NO: 6), [NT] (antisense; SEQ ID NO: 7); β2-m (internal […] (sense; SEQ ID NO: 8), [NT] (antisense; SEQ ID NO: 9). PCR regimen was as follows: 94° C. for 5 minutes; 94° C. for 1 minute, 55° C. for 1 minute, and 72° C. for 1 minute for 41 cycles; and 60° C. for 10 minutes. PCR products were separated in 4% NuSieve 3:1 Reliant-agarose gels (Lonza, Basel, Switzerland) in 1× Tris-borate EDTA buffer [0.089 mol/L Tris-borate, 0.002 mol/L EDTA (pH 8.3); Research Organics Inc., Cleveland, Ohio] by submarine electrophoresis. The gels were stained with EtBr and digitally photographed.

[4] = Serum stability of siRNA and PAMAM-PEG-PLL-siRNA complex; format: in vitro ADME; conditions: 50% human serum, 37° C.
Experimental: Serum stabilities of naked siRNA and siRNA complexed with PAMAM-PEG-PLL nanocarrier were investigated by incubating siRNA or PAMAM-PEG-PLL-siRNA complex in 50% human serum at 37° C. Ten samples were prepared by mixing siRNA (30 nmol) in water with PAMAM-PEG-PLL (74.8 nmol, N/P=3) solution in water and separately incubated for 30 minutes at room temperature. In the case of naked siRNA, equal volume of RNAase free water was used instead of nanocarrier. To each of these samples 50% human plasma was added (final siRNA concentration was 1.43 nM) and incubated at 37° C. Samples were removed at an indicated time intervals (0, 0.25, 0.5, 0.75, 1, 3, 6, 12, 24 and 50 hours) and analyzed using a gel electrophoresis (4% agarose gel at 100 V for 50 minutes) in Tris-Borate-EDTA buffer containing EtBr. siRNA bands on the gel were visualized under ultraviolet light. PAMAM-PEG-PLL-siRNA samples were pre-treated with polymethacrylic acid to release free siRNA from cationic nanocarriers. 100 μL of polymethacrylic acid solution (4 μM) was added to the complexes (triblock nanocarrier/siRNA=3) and incubated at 37° C. with 50% human plasma. The released siRNA was then analyzed by a gel electrophoresis.

5′-GUGAAGUCAACAUGCCUGC-dTdT-3′ (sense strand; SEQ ID NO: 4) and 5′-GCAGGCAUGUUGACUUCAC-dTdT-3′ (antisense strand; SEQ ID NO: 5) (sense GUGAAGUCAACAUGCCUGCTT; antisense GCAGGCAUGUUGACUUCACTT; sugars from the 5' end r19 d2, backbone not given here) [naked siRNA, siRNA targeted to BCL2 mRNA without carrier; fluorophore labelled siRNA used in uptake tests]
BCL2 gene knockdown (BCL2 mRNA): Gene silencing was not observed | tumor growth / antitumor activity [1]: did not significantly influence the growth of the tumor | cellular uptake of siRNA [2]: did not penetrate the cancer cells | siRNA cellular internalization [3]: not internalized by the cells | expression of targeted BCL2 gene, from control value (BCL2 gene): did not influenced | incubation time after which siRNA started to degrade [4]: 1 h
